IC50, inhibition and melting point data for 17 molecules are collected here from patent US7601716B2, “Pyridopyrazines and derivatives thereof as ALK and c-Met inhibitors” (Cephalon, Inc., priority 2006, dated 2009).

The target in data set [1] is baculovirus-expressed ALK (Homo sapiens, UniProt Q9UM73). The data set is described as follows: ALK Kinase Assay (ELISA/TRF, PLC-γ substrate). Also: 1 µM ATP (Km level). The class given is biochemical. As to conditions: read-out: ALK Kinase Inhibition (IC50). In short, it runs like this:
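ALK at 30 ng/ml phosphorylated plate-bound PLC-γ–GST fusion (coated from 10 μg/mL) during 15 minutes at 37° C. Product was detected with Eu-N1 PT66 anti-phosphotyrosine antibody and measured by time-resolved fluorescence.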
A general note: In an ELISA, binding on a coated surface is turned into a signal by an enzyme label.

Data set [2] concerns the target T1, c-Met (cytoplasmic domain) (Homo sapiens, UniProt P08581).
T1 construct: Reactions were initiated with 30 ng/mL c-Met (cytoplasmic domain, Invitrogen Corporation #PV3143); purchased Invitrogen Corporation PV3143
Briefly: c-Met Kinase Assay (ELISA/TRF, PLC-γ substrate). In kind it is biochemical. As to conditions: 3 μM ATP (Km level); read-out: c-Met Kinase Inhibition (IC50). In short, it runs like this: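 Readout is TRF of europium anti-phosphotyrosine (PT66) bound to GST–PLC-γ substrate coated at 10 μg/mL, after a 15 min, 37 °C reaction started with 30 ng/mL c-Met cytoplasmic domain. Percent inhibition plotted against log compound concentration and fitted (variable slope) for IC50.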

Data set [3] deals with T2, c-Met (phospho-c-Met) in A549 cells (Homo sapiens, UniProt P08581).
T2 construct: endogenous in cells; host or cells: HT29, A549 (HGF-stimulated), GTL-16
T2 sequence (P08581 25-1390): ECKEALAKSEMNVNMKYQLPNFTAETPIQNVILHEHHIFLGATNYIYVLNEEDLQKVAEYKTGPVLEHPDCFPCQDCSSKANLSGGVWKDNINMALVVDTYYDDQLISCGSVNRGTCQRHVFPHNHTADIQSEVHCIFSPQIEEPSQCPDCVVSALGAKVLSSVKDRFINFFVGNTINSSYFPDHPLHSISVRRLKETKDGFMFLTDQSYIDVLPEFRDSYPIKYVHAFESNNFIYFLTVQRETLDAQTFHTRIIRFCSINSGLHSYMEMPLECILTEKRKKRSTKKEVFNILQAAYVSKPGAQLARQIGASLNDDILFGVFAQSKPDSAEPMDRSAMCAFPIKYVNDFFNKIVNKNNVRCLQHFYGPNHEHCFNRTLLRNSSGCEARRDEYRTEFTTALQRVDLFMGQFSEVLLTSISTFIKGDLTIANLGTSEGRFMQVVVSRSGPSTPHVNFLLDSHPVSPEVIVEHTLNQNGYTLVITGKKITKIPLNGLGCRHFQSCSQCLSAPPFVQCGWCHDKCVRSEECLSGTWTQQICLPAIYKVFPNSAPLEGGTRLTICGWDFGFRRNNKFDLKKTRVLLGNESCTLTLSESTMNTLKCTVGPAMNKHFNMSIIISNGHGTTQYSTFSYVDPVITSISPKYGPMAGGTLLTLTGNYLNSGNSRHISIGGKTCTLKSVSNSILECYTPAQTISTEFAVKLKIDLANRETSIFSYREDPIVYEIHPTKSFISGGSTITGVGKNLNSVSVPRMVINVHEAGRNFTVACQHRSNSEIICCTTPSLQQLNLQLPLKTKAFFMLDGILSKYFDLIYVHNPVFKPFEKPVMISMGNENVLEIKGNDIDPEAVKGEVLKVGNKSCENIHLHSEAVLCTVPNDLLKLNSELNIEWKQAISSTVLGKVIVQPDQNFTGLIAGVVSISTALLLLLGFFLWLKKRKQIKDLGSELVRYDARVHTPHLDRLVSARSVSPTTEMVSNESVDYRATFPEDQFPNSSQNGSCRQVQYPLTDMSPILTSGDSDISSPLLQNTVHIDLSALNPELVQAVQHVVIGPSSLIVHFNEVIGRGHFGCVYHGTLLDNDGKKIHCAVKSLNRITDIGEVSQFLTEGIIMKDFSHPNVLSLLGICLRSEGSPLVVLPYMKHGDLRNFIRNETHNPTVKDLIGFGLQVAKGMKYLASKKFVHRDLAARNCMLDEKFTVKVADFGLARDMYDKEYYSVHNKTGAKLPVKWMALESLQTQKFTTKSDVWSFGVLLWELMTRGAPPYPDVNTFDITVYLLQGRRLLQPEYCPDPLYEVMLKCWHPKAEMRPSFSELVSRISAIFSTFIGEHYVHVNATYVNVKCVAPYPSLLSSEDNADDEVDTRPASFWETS
Briefly: c-Met Cellular Activity/Autophosphorylation Assay, A549 cells (HGF stimulated). As to conditions: 50 ng/mL HGF; for inhibition at 1 µM: 1 μM compound, read-out: c-Met autophosphorylation inhibition score, A549 Cells (1 μM); for inhibition at 3 µM: 3 μM compound, read-out: c-Met autophosphorylation inhibition score, A549 Cells (3 μM). The class given is cell-based. The procedure:
(§1) HT29 and GTL-16 cells were serum starved for one hour in media containing 0.05% BSA and varying concentrations of Example compounds (1-10 μM). A549 cells were serum starved overnight in media containing 0.05% BSA then treated for one hour with Example compounds followed by a 15 minute stimulation with 50 ng/mL HGF (Peprotech, Rocky Hill, N.J.), respectively. Samples were resolved by electrophoresis on a 3-8% Tris-Acetate gel (40 ma/gel) and then transferred to a nitrocellulose membrane. Membranes were blocked for one hour at room temperature in Odyssey Blocking Buffer (Licor #927-40000) diluted 1:1 with 1×TBS. Membranes were then co-incubated overnight at 4° C. with primary antibodies [total Met (Cell Signaling, #3127) and Phospho-Met (Biosource, #44-888G) 1:1000 each in Odyssey Blocking Buffer diluted 1:1 with 1×TBS-T 0.05%]. The next day, membranes were washed and co-incubated with secondary antibodies [Goat anti mouse IRDye800 (Rockland, #610-132-121) and Goat anti rabbit Alexa fluor 700 (Molecular Probes, #A21038) 1:10,000] in Odyssey Blocking Buffer diluted 1:1 with 1×TBS-T 0.05% for one hour at room temperature protected from light. Blots were then washed and read on the Odyssey Infrared Imager. Total c-Met signal was visualized at 800 nm detection and phospho-c-Met signal was visualized at 700 nm detection.

Data set [4] concerns the target T3, c-Met (phospho-c-Met) in HT29 cells (Homo sapiens, UniProt P08581).
T3 construct: endogenous in cells; host or cells: HT29, A549 (HGF-stimulated), GTL-16
Briefly: c-Met Cellular Activity/Autophosphorylation Assay, HT29 cells. As to conditions: for inhibition at 1 µM: HT-29, 1 μM compound, read-out: c-Met autophosphorylation inhibition score, HT29 Cells (1 μM); for inhibition at 3 µM: HT-29, 3 μM compound, read-out: c-Met autophosphorylation inhibition score, HT29 Cells (3 μM). In kind it is cell-based. As for the experimental part: as §1

T3 sequence (P08581 25-1390): as above
T1 sequence (P08581 956-1390 limits assumed): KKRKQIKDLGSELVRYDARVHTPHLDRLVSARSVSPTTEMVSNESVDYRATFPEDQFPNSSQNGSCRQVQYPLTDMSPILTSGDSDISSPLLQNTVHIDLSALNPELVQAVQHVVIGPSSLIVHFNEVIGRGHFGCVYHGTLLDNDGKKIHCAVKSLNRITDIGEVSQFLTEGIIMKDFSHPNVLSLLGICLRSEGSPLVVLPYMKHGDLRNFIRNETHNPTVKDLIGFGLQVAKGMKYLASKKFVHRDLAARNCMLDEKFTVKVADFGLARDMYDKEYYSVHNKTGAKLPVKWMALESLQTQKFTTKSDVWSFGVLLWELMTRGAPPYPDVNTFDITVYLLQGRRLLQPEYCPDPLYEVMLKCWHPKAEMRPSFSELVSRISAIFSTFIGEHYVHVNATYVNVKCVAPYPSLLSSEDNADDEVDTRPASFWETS
baculovirus-expressed ALK, sequence (Q9UM73 19-1620): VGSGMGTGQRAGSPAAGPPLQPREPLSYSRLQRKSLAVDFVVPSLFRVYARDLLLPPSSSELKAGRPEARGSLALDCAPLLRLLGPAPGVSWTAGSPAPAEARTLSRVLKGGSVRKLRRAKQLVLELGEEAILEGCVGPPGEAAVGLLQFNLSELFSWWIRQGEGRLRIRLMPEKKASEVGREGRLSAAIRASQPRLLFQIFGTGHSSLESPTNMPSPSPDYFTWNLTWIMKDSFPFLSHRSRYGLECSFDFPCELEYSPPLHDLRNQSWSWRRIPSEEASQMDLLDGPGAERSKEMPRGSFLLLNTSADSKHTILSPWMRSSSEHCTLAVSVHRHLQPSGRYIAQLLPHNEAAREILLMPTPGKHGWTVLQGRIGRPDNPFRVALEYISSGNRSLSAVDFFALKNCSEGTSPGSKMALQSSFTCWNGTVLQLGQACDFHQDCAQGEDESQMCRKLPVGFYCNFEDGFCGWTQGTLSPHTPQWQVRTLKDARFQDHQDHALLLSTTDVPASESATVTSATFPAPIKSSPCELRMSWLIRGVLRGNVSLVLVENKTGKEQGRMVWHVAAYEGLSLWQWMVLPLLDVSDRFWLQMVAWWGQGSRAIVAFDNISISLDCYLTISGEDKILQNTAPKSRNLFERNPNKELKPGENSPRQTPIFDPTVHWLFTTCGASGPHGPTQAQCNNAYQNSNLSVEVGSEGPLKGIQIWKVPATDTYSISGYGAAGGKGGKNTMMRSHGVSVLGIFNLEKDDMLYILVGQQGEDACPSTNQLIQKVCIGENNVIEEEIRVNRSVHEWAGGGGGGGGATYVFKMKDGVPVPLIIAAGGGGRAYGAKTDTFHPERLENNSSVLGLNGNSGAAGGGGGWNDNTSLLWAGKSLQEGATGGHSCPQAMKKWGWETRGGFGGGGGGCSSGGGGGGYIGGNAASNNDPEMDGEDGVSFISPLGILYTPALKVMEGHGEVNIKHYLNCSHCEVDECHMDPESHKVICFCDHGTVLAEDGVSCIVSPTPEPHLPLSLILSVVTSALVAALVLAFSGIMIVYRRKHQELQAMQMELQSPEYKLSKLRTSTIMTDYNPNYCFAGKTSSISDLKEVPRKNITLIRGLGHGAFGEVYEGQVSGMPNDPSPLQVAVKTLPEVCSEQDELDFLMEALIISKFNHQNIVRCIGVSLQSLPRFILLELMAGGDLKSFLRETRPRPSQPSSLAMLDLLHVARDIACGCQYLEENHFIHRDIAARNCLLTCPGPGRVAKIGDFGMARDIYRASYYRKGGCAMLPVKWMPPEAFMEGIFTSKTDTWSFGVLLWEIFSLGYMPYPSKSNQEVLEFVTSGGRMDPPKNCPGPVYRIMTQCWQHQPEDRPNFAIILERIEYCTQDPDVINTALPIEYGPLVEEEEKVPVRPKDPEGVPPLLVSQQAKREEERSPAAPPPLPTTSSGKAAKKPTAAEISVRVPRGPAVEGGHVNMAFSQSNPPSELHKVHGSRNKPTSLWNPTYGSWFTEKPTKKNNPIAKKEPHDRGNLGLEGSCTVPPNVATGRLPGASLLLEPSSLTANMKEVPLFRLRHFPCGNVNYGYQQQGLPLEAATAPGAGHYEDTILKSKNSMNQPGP

With `O=C(O)c1ccc(-c2cnc3c(c2)N(Cc2cc(F)ccc2F)CCN3)cn1` [Example 72, 5-[1-(2,5-Difluorobenzyl)-1,2,3,4-tetrahydropyrido[2,3-b]pyrazin-7-yl]-pyridine-2-carboxylic acid], the melting point (usually the temperature of the solid-liquid transition) is 240 °C (dec.). Also, the IC50 – broadly, the concentration at which inhibition is half-maximal – in data set [1] is 100 to 1000 nM. For the same molecule, the IC50 in data set [2] is 1000 to 10000 nM. In data set [3], the inhibition – broadly, the share of the control response that was lost under treatment – at 1 µM was 0 to 25% and the inhibition at 3 µM fell in the range of 0 to 25%. In data set [4], the inhibition at 1 µM was 26 to 50% and the inhibition at 3 µM was in the range of 26 to 50%.
On to `Fc1ccc(F)c(CN2CCNc3ncc(-c4ccnc(N5CCOCC5)c4F)cc32)c1Cl` [Example 102, 1-(2-Chloro-3,6-difluorobenzyl)-7-(3-fluoro-2-morpholin-4-yl-pyridin-4-yl)-1,2,3,4-tetrahydropyrido[2,3-b]pyrazine], for which the values for the IC50 in data set [1] and in data set [2] were 100 to 1000 nM and 1000 to 10000 nM, respectively. Further, the inhibition at 1 µM in data set [3] was 0 to 25%; in data set [4], 26 to 50%. Moreover, the inhibition at 3 µM in data set [3] fell in the range of 26 to 50%; in data set [4] it was 51 to 75%.
As for `CN1CCN(C(=O)c2ccc(-c3cnc4c(c3)N(Cc3c(F)ccc(F)c3Cl)CCN4)cc2)CC1` [Example 104, {4-[1-(2-Chloro-3,6-difluorobenzyl)-1,2,3,4-tetrahydropyrido[2,3-b]pyrazin-7-yl]phenyl}-(4-methylpiperazin-1-yl)methanone], the IC50 in data set [1] was below 100 nM. Also, the IC50 in data set [2] lay within 100 to 1000 nM. In addition, in data set [4], the inhibition at 1 µM lay in the range of 0 to 25% and the inhibition at 3 µM lay in the range of 51 to 75%.
In the case of `CN1CCN(c2ccc(-c3cnc4c(c3)N(Cc3cc(Cl)ccc3C(F)(F)F)CCN4)cn2)CC1` [Example 118, 1-(5-Chloro-2-trifluoromethylbenzyl)-7-[6-(4-methylpiperazin-1-yl)pyridin-3-yl]-1,2,3,4-tetrahydropyrido[2,3-b]pyrazine], in data set [3], the inhibition at 1 µM was in the range of 0 to 25% and the inhibition at 3 µM was in the range of 26 to 50%. In addition, in data set [4], the inhibition at 1 µM was 26 to 50% and the inhibition at 3 µM is 51 to 75%.
Turning to `CN1CCN(c2ccc(-c3cnc4c(c3)N(Cc3cc(C(F)(F)F)ccc3Cl)CCN4)cn2)CC1` [Example 120, 1-(2-Chloro-5-trifluoromethylbenzyl)-7-[6-(4-methylpiperazin-1-yl)pyridin-3-yl]-1,2,3,4-tetrahydropyrido[2,3-b]pyrazine], the IC50 lay within 100 to 1000 nM in data set [1] and 1000 to 10000 nM in data set [2]. Also, the inhibition at 1 µM lay in the range of 0 to 25% in data set [3] and 26 to 50% in data set [4]. The inhibition at 3 µM in data set [3] and in data set [4] was 26 to 50% throughout.
As to `CN1CCN(c2ccc(-c3cnc4c(c3)N(S(=O)(=O)c3cc(F)ccc3F)CCN4)cn2)CC1` [Example 122, 1-(2,5-Difluorobenzenesulfonyl)-7-[6-(4-methylpiperazin-1-yl)pyridin-3-yl]-1,2,3,4-tetrahydropyrido[2,3-b]pyrazine], the IC50 in data set [1] lay within 100 to 1000 nM; in data set [2] it was 1000 to 10000 nM. Further, the inhibition at 1 µM in data set [3] fell in the range of 0 to 25%; in data set [4] it was 26 to 50%. Moreover, the inhibition at 3 µM in data set [3] and in data set [4] was 26 to 50% throughout.
As for `CC(C)(C)OC(=O)NCC#Cc1cnc2c(c1)N(Cc1cc(Cl)ccc1Cl)CCN2` [Example 168, {3-[1-(2,5-Dichlorobenzyl)-1,2,3,4-tetrahydropyrido[2,3-b]pyrazin-7-yl]prop-2-ynyl}carbamic acid tert-butyl ester], the IC50 fell in the range of 1000 to 10000 nM in data set [1] and 10000 to 100000 nM in data set [2]. Besides, the inhibition at 1 µM in data set [3] and in data set [4] was 0 to 25% throughout. Also, the inhibition at 3 µM in data set [3] was 0 to 25%; in data set [4], 26 to 50%.
Consider `Nc1ccc(-c2cnc3c(c2)N(Cc2c(F)ccc(F)c2Cl)CCN3)cn1` [Example 184, 5-[1-(2-Chloro-3,6-difluorobenzyl)-1,2,3,4-tetrahydropyrido[2,3-b]pyrazin-7-yl]-pyridin-2-ylamine], for which the melting point is above 200 °C. Besides, the IC50 in data set [1] was below 100 nM. Moreover, the IC50 in data set [2] lay within 1000 to 10000 nM. Further, in data set [4], the inhibition at 1 µM lay in the range of 51 to 75% and the inhibition at 3 µM lay within 76 to 100%.
Turning to `O=C(c1ccc(-c2cnc3c(c2)N(Cc2cc(Cl)ccc2C(F)(F)F)CCN3)cc1)N1CCC(N2CCOCC2)CC1` [Example 287, (4-{1-[5-Chloro-2-(trifluoromethyl)benzyl]-1,2,3,4-tetrahydropyrido[2,3-b]pyrazin-7-yl}phenyl)-(4-morpholin-4-yl-piperidin-1-yl)methanone], the values for the IC50 in data set [1] and in data set [2] were below 100 nM and 100 to 1000 nM, respectively. Moreover, the inhibition at 1 µM in data set [3] and in data set [4] was 0 to 25% in each case. The inhibition at 3 µM lay in the range of 0 to 25% in data set [3] and 26 to 50% in data set [4].
Molecule `O=C1CNc2ncc(I)cc2N1Cc1ccc(C(F)(F)F)o1` [Example 290, 7-Iodo-1-[5-(trifluoromethyl)furan-2-ylmethyl]-3,4-dihydro-1H-pyrido[2,3-b]pyrazin-2-one] came in with a melting point of 189 to 191 °C. The IC50 in data set [1] was in the range of 10000 to 100000 nM. Besides, the IC50 in data set [2] is above 100000 nM.
For `FC(F)(F)c1ccc(CN2CCNc3ncc(I)cc32)o1` [Example 291, 7-Iodo-1-[5-(trifluoromethyl)furan-2-ylmethyl]-1,2,3,4-tetrahydropyrido[2,3-b]pyrazine] the same measures were 153 to 154 °C, 10000 to 100000 nM and above 100000 nM.
For `O=C1CNc2ncc(I)cc2N1Cc1ccccc1OC(F)(F)F` [Example 294, 7-Iodo-1-[2-(trifluoromethoxy)benzyl]-3,4-dihydro-1H-pyrido[2,3-b]pyrazin-2-one] the same measures were 235 °C, 10000 to 100000 nM and 10000 to 100000 nM.
The molecule `CCOC(=O)c1ccc(-c2cnc3c(c2)N(Cc2ccccc2OC(F)(F)F)CCN3)cc1` [Example 297, 4-{1-[2-(Trifluoromethoxy)benzyl]-1,2,3,4-tetrahydropyrido[2,3-b]pyrazin-7-yl}benzoic acid ethyl ester] registered a melting point of 153 °C. Besides, the IC50 in data set [1] was 1000 to 10000 nM. Also, in data set [2], the IC50 is above 100000 nM.
The corresponding values for `O=C(O)c1ccc(-c2cnc3c(c2)N(Cc2ccccc2OC(F)(F)F)CCN3)cc1` [Example 298, 4-{1-[2-(Trifluoromethoxy)benzyl]-1,2,3,4-tetrahydropyrido[2,3-b]pyrazin-7-yl}benzoic acid] are 250 °C, 1000 to 10000 nM and above 100000 nM.
The corresponding values for `O=C1CNc2ncc(I)cc2N1Cc1cccnc1Cl` [Example 299, 1-(2-Chloropyridin-3-ylmethyl)-7-iodo-3,4-dihydro-1H-pyrido[2,3-b]pyrazin-2-one] are 249 °C, 1000 to 10000 nM and above 100000 nM.
The molecule `CC(=O)Nc1ccc(-c2cnc3c(c2)N(Cc2cc(Cl)ccc2C(F)(F)F)CCN3)cc1` [Example 304, N-(4-{1-[5-Chloro-2-(trifluoromethyl)benzyl]-1,2,3,4-tetrahydropyrido[2,3-b]pyrazin-7-yl}phenyl)acetamide] registered a melting point of 244 °C. Further, the IC50 in data set [1] lay within 1000 to 10000 nM. For the same molecule, the IC50 in data set [2] was above 100000 nM.
As for `CN1CCN(c2ccc(-c3cnc4c(c3)N(Cc3c(F)ccc(F)c3Cl)CC(=O)N4)cn2)CC1` [Example 437, 1-(2-Chloro-3,6-difluorobenzyl)-7-[6-(4-methylpiperazin-1-yl)pyridin-3-yl]-1,4-dihydro-2H-pyrido[2,3-b]pyrazin-3-one], the melting point is 235 to 236 °C (dec.). Besides, the IC50 in data set [1] was in the range of 100 to 1000 nM. Besides, in data set [2], the IC50 is 1000 to 10000 nM.
